We go through three compounds from patent US20250332112A1, “IONIZABLE CATIONIC LIPIDS FOR LIPID NANOPARTICLES” (GENEVANT SCIENCES GMBH, priority 2022, published 2025).

For data set [1] the following is noted: cited from earlier work.
Data set [2] can be described thus: Lipid clearance from liver over time after EGFP mRNA LNP (LC-MS). The data set is classed as in vivo. The note with it: IV 0.5 mg/kg EGFP mRNA LNP, female BALB/c mice (n = 4). The procedure:
Liver tissues were treated with PBS and homogenized with a FastPrep machine, 3 cycles of 5 m/s×15 s. Homogenates from the PBS-treated control animals was pooled and used for standard curve preparation. Samples were extracted into a deep well plate with 250 μL of an internal suitability standard. Plates were centrifuged for 15 min at 4° C. and 2000 rpm. Analysis was performed using an Agilent 6520 QTOF coupled to an Agilent 1290 UHPLC, using reverse-phase LC separation. Quantitation of the ionizable lipid was by MS/MS against a calibration curve spiked into appropriately matched blank matrix. Calibration used a similar class of synthetic lipid as internal standard.
At various timepoints post-dose, lipid levels were assessed in the liver. Some novel ionizable lipids reported more rapid clearance rates compared to the benchmark (Table 33).

For data set [3], the system named is EGFP expression in the liver. In words: Dose response of EGFP mRNA LNP, EGFP expression in liver. The class given is in vivo. The note with it: 24 h, female BALB/c mice (n = 4). The protocol:
At 24 h post-dose, the novel lipid formulations reported dose-dependent increases in EGFP expression in the liver (Table 32).

Data set [4] relates to EGFP expression in the liver. In words: EGFP expression in liver after intravenous EGFP mRNA LNP (ELISA). The note with it: Table 26; 0.5 mg/kg IV, 24 h post-IV administration, BALB/c mice (n = 4). Background: An ELISA detects its analyte on a solid surface through an enzyme-linked reagent.
Procedure: LNP formulations encapsulating enhanced green fluorescent protein mRNA were injected intravenously at 0.5 mg/kg to female BALB/c mice (6-8 weeks old). On day of injection, the LNP stocks were filtered and diluted to the required dosing concentration with phosphate buffered saline. At 24 hours post-administration, animals were anaesthetized with a lethal dosage of ketamine/xylazine. Liver samples (left lateral lobe) were collected, weighed, and flash frozen in liquid nitrogen. Liver samples were stored in FastPrep® tubes at −80° C. until analyzed for EGFP expression.
Liver homogenates were prepared in cell extraction buffer, diluted, and analyzed for EGFP protein levels using ELISA, according to manufacturer's instructions (Abcam, GFP ELISA Kit).
Data set [5] is described as follows: Particle characteristics of LNPs containing EGFP mRNA and novel ionizable lipids. The data set is classed as physicochemical. The settings on record: Table 22; EGFP mRNA LNP 1.6:54.6:32.8:10.9. The essentials: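 LNPs of PEG-lipid, ionizable lipid, cholesterol and phospholipid in ethanol were mixed 1:1 with mRNA in 100 mM acetate pH 5 via T-junction, diluted in PBS, dialysed, concentrated to ~0.6 mg/mL and exchanged into 5 mM Tris, 10% sucrose, pH 8. Size and polydispersity by Zetasizer; nucleic acid by RiboGreen.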

Data set [6] can be described thus: Parent ionizable lipid remaining in liver at 24 h after EGFP mRNA LNP (LC-MS). The class given is in vivo. The note with it: Table 30; 24 h after IV 0.5 mg/kg EGFP mRNA LNP, female BALB/c mice (n = 4).

In the case of `CCCCCCCCC(CCCCCC)C(=O)OCCCCCCN(CCCCO)CCCCCCOC(=O)C(CCCCCC)CCCCCCCC` (stereo not shown) [ALC-0315], in data set [1] (ref: Comirnaty Assessment Report, European Medicines Agency), the “Rate of metabolism (in words)” value was “metabolize at a similar rate to MC3”.
Regarding `CCCCCCCCCCN(C(=O)CCCN(C)C)C(CCCCCCCCC)CCCCCCC(F)C(=O)OC(CCCCCCCC)CCCCCCCC` (stereo not shown) [Compound 115, Heptadecan-9-yl 9-(N-decyl-4-(dimethylamino)butanamido)-2-fluorooctadecanoate], the “Parent ionizable lipid remaining in liver, Average” value in data set [2] (0.25 h post-dose) came to 36.7 nmol/g liver; in data set [2] (1 h post-dose) it was 51.3 nmol/g liver; in data set [2] (3 h post-dose) it was 44.8 nmol/g liver; in data set [2] (6 h post-dose), 45.3 nmol/g liver; in data set [2] (24 h post-dose), 0.0 nmol/g liver; in data set [2] (168 h post-dose), 1.3 nmol/g liver. Besides, the “Parent ionizable lipid remaining in liver, Average” value in data set [6] is listed as 27.15 nmol/g liver. Also, the EGFP expression is 2.98e+07 pg EGFP/g liver in data set [3] (0.3 mg/kg IV), 1.31e+08 pg EGFP/g liver in data set [3] (1 mg/kg IV) and 3.41e+08 pg EGFP/g liver in data set [3] (3 mg/kg IV). In addition, the EGFP in data set [4] was 6.06E+07 pg/g liver. Besides, the “Final Product % EE” value in data set [5] came to 98%. Besides, the “Final Product PDI” value in data set [5] is on record as 0.04. Also, the “Final Product Z-avg” value in data set [5] was 72 nm.
With `CCCCC/C=C\C/C=C\CCCCCCCCC(CCCCCCCC/C=C\C/C=C\CCCCC)OC(=O)CCCN(C)C` [MC3], the “Clearance from target tissues (in words)” value in data set [1] (in vivo) is recorded as “take several weeks to clear from target tissues”.
